This passage reports ED50 ratio results from ChEMBL document CHEMBL1127903, “Heteroaromatic Taxol Analogues: The Chemistry and Biological Activities of 3-Furyl and 3-Pyridyl Substituted Taxanes” (1994).

Assay [1] concerns the target Tubulin alpha chain (Sus scrofa) (UniProt P02550). Nature of the assay: Tested for the effect on polymerization of the tubulin present by microtubule assembly assay relative to taxol as1. The format is functional.
The test system of assay [2] is B16. Nature of the assay: Tested for cytotoxic effect against B16 melanoma cells relative to taxol as1. The format is functional, Mus musculus.
Assay [3] deals with Tubulin alpha chain (Sus scrofa) (UniProt P02550). Nature of the assay: Tested for the effect on polymerization of the tubulin present by microtubule assembly assay. The format is functional.
Assay [4] concerns B16. Nature of the assay: Tested for cytotoxic effect against B16 melanoma cells. The format is functional, Mus musculus.

Chain of Tubulin alpha chain (Sus scrofa) (P02550 whole entry, looked up): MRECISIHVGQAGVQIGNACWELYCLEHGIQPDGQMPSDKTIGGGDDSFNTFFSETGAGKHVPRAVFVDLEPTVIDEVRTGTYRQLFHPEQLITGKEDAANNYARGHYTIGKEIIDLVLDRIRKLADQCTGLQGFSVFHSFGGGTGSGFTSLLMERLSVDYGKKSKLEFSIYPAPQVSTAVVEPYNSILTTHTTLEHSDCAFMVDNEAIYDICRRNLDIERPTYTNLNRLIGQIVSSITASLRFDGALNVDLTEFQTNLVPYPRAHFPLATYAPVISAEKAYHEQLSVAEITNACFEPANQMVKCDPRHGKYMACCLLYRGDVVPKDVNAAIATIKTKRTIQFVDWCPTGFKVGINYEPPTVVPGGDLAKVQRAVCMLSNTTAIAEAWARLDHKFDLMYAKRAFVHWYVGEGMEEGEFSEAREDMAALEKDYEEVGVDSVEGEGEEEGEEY

As for `CC(=O)O[C@H]1C(=O)[C@@]2(C)[C@H]([C@H](OC(=O)c3ccccc3)[C@]3(O)C[C@H](OC(=O)[C@H](O)[C@@H](NC(=O)c4ccccc4)c4ccco4)C(C)=C1C3(C)C)[C@]1(OC(C)=O)CO[C@@H]1C[C@@H]2O`, the ED50 ratio in assay [1] amounted to 0.9; in the assay on B16 [2], 0.3.

For `CC(=O)O[C@H]1C(=O)[C@@]2(C)[C@H]([C@H](OC(=O)c3ccccc3)[C@]3(O)C[C@H](OC(=O)[C@H](O)[C@@H](NC(=O)c4ccccc4)c4ccccn4)C(C)=C1C3(C)C)[C@]1(OC(C)=O)CO[C@@H]1C[C@@H]2O`, the ED50 ratio in assay [1] stood at 0.7; in the assay with B16 [2], 0.8.

As for `CC(=O)O[C@H]1C(=O)[C@@]2(C)[C@H]([C@H](OC(=O)c3ccccc3)[C@]3(O)C[C@H](OC(=O)[C@H](O)[C@@H](NC(=O)c4ccccc4)c4ccncc4)C(C)=C1C3(C)C)[C@]1(OC(C)=O)CO[C@@H]1C[C@@H]2O`, the ED50 ratio in assay [1] came out at 0.4; in the assay with B16 [2] it was 1.3.

`CC(=O)O[C@H]1C(=O)[C@@]2(C)[C@H]([C@H](OC(=O)c3ccccc3)[C@]3(O)C[C@H](OC(=O)[C@H](O)[C@@H](NC(=O)c4ccccc4)c4ccccc4)C(C)=C1C3(C)C)[C@]1(OC(C)=O)CO[C@@H]1C[C@@H]2O` [PACLITAXEL]: the ED50 ratio (in assay [3]; with B16 [4]) was 1 each time.

Turning to `CC(=O)O[C@H]1C(=O)[C@@]2(C)[C@H]([C@H](OC(=O)c3ccccc3)[C@]3(O)C[C@H](OC(=O)[C@H](O)[C@@H](NC(=O)c4ccccc4)c4ccoc4)C(C)=C1C3(C)C)[C@]1(OC(C)=O)CO[C@@H]1C[C@@H]2O`, the results for the ED50 ratio (in assay [1]; with B16 [2]) were 0.9 and 3.3, respectively.

For the compound `CC(=O)O[C@H]1C(=O)[C@@]2(C)[C@H]([C@H](OC(=O)c3ccccc3)[C@]3(O)C[C@H](OC(=O)[C@H](O)[C@@H](NC(=O)c4ccccc4)c4cccnc4)C(C)=C1C3(C)C)[C@]1(OC(C)=O)CO[C@@H]1C[C@@H]2O`, the ED50 ratio in assay [1] was 0.5; in the assay on B16 [2] it was 27.
